{"source": "paper PMC10851555", "about": "“Safinamide, an inhibitor of monoamine oxidase, modulates the magnitude, gating, and hysteresis of sodium ion current” (BMC Pharmacology & Toxicology, 2024)", "assay_type_in_all_cases": "cell-based, rat", "key": {"[1]": {"test_system": "voltage-gated sodium ion (NaV) channels in pituitary GH3 cells", "assay": "Whole-cell patch-clamp of INa induced by a 30-ms depolarizing pulse (−100 to −10 mV) in GH3 cells", "details": "for reversal of SAF-mediated increase in INa(T): 10 μM added during exposure to SAF (30 μM); for reversal of SAF-mediated increase in INa(T) / effect on magnitude of INa(T): n = 7; for effect on magnitude of INa(T): dopamine or serotonin alone"}, "[2]": {"test_system": "single NaV channels in GH3 cells", "assay": "Cell-attached single-channel NaV current recordings in GH3 cells", "details": "n = 7", "experimental": "The composition of the external or bath solution [4-(2-hydroxyethyl)-1-piperazineethanesulfonic acid (HEPES)-buffered normal Tyrode’s solution] was as follows: 136.5 mM NaCl, 1.8 mM CaCl2, 5.4 mM KCl, 0.53 mM MgCl2, 5.5 mM glucose, and 5.5 mM HEPES–NaOH (pH 7.4). To measure K^+ currents (data not shown), we filled a patch pipette with an internal solution comprising 140 mM KCl, 1 mM MgCl2, 3 mM adenosine 5′-triphosphate disodium salt, 0.1 mM guanosine 5′-triphosphate disodium salt, 0.1 mM ethylene glycol tetraacetic acid, and 5 mM HEPES–KOH buffer (pH 7.2). To record the whole-cell INa, the K^+ in the internal solution was substituted with Cs^+, and the pH of the solution was adjusted to 7.2 by adding cesium hydroxide. In the single-channel experiments performed to record NaV currents, the pipette was filled with a Na^+-rich solution containing 136 mM NaCl, 0.53 mM MgCl2, 5.5 mM glucose, and 5.5 mM HEPES–NaOH (pH 7.2). The bath medium was a K^+-rich solution comprising 130 mM KCl, 10 mM NaCl, 3 mM MgCl2, 6 mM glucose, and 10 mM HEPES-KOH (pH 7.4). The solutions and culture media were generally filtered on the day of use by using sterile Acrodisc Syringe Filters containing a 0.2-μm Supor Membrane (Bio-Check; New Taipei City, Taiwan).\nSingle-channel NaV currents induced by depolarizing pulses ranging from −100 to −10 mV were measured and subsequently analyzed using pCLAMP 10.7. The opening events of the channels were generally evaluated through multi-Gaussian adjustments of the distribution of amplitude across channels. Functional independence between channels was determined by comparing the observed stationary probabilities with the values calculated based on the binomial law. For dwell-time analyses, only a single channel was used in the patch-clamp experiment.\nTo elucidate the mechanisms underlying the effects of SAF on the magnitude of INa, we investigated the actions of SAF and SAF plus MGB on single-channel NaV currents. This experiment was performed using the cell-attached configuration of the voltage-clamp test. Test cells were placed in K^+-rich solution, and the recording pipette was filled with Na^+-rich solution. SAF (10 μM) increased channel activity and decelerated current inactivation when the cells were exposed to depolarization stimuli ascending from –100 to –10 mV (rate of 0.1 Hz; Fig. 9A). Furthermore, the addition of MGB (10 μM) in the presence of 10 μM SAF reduced the probability of channel opening. […] Moreover, with the presence of 10 μM SAF, the mean open time of NaV channels was prolonged to […] (n = 7, P < 0.05) msec from a control value of 2.3 ± 0.3 msec (n = 7). […] Consistent with these findings, the mean open time of the NaV channel in the presence of 10 μM SAF (5.9 ± 1.1 ms; n = 7; P < 0.05) was longer than that in the control period (2.3 ± 0.3 ms, n = 7); the subsequent further addition of 10 μM MGB decreased the mean open time to 3.7 ± 0.7 ms (n = 7, P < 0.05) (Fig. 9B). […] MGB added during SAF exposure reversed the SAF-induced increase in NaV channel activity."}, "[3]": {"test_system": "voltage-gated sodium ion (NaV) channels in pituitary GH3 cells", "assay": "Whole-cell INa(T) decay during a 1-s, 20-Hz train of depolarizing pulses in GH3 cells", "details": "for effect on SAF-induced increase in decaying time constant of INa(T): 10 μM added in the presence of 10 μM SAF; for decaying time constant of INa(T) during train of depolarizing pulses: 10 μM alone, control 66 ± 5 ms, n = 7", "experimental": "Shortly before experiments, GH3 was carefully suspended in normal Tyrode’s solution at room temperature (20–25 °C). A few drops of the suspension containing cell clumps were immediately added to a custom-built chamber on the stage of an inverted Diaphot-200 microscope (Nikon, Tokyo, Japan). Pipettes were pulled from Kimax-51 soft-glass capillaries (#34500-99; Kimble, Vineland, NJ) by using a Narishige PP-830 Vertical Puller (Tokyo, Japan), and their tips were fire-polished using a microforge (MF-83, Narishige). During the measurements, an electrode with a tip resistance of 2–4 MΩ, which was tightly inserted into a holder, was maneuvered using a WR-98 micromanipulator (Narishige). Patch-clamp experiments were performed in the voltage-clamp mode with either cell-attached or whole-cell configuration (rupturing of the membrane patch after GΩ formation) by using a RK-400 Patch-Clamp Amplifier (Bio-Logic, Claix, France) connected to a laptop. Shortly before GΩ formation, potential correction was performed for a liquid junction potential, which developed at the electrode’s tip because of the difference in the compositions of the internal and bath solutions.\nSAF is efficacious as an add-on therapy following subthalamic nucleus deep brain stimulation in patients with Parkinson’s disease. Therefore, we investigated whether SAF could modify the inactivation of currents induced by a train of depolarizing stimuli. The test cells were maintained at −80 mV and subjected to repetitive depolarization to −10 mV (40 ms per pulse; rate of 20 Hz; duration of 1 s). Similar to the findings of relevant studies, during the control period (the absence of SAF), INa(T) inactivation was noticed to be induced by 1 s of repetitive depolarization stimuli (−80 to −10 mV) with a decaying time constant of 65 ± 4 ms (n = 7; Fig. 6A, 6B and 6C). […] In the presence of 3 and 10 μM SAF, the exponential time course of INa(T) induced by the same train of depolarizing pulses was longer at 107 ± 5 ms (n = 7, P < 0.05) and 124 ± 6 ms (n = 7, P < 0.05), respectively. Furthermore, as MGB and ranolazine have been reported to suppress the amplitude of INa effectively, we added ranolazine (Ran; 10 μM) and mirogabalin (MGB; 10 μM) separately in the presence of 10 μM SAF. […] The application of Ran (10 μM) or MGB (10 μM) alone decreased the decaying time constant of INa(T) during the same train of depolarizing pulses to 39 ± 4 ms (n = 7, P < 0.05) or 42 ± 4 ms (n = 7, P < 0.05), respectively, from a control value of 66 ± 5 ms (n = 7). Thus, in addition to increasing the magnitude of INa(T), SAF prominently affects the decaying of INa(T) subjected to a 1-s train of depolarizing pulses.\nFig. 6 Effect of SAF on INa(T) decay induced by a train of depolarizing pulses in GH3 cells. The train of pulses comprised twenty 40-ms pulses (voltage increased to −10 mV) with 10-ms intervals at −80 mV for a total duration of 1 s. (A) Current traces during the control period (a, blue) and during exposure to 10 μM SAF (b, red). The voltage-clamp protocol used is indicated atop the current traces. In panel A, the third graphs (blue and red) from the top are the expanded forms of the second graphs (brown dashed boxes). (B) The relative amplitude of INa(T) versus pulse train duration in the absence (blue open circles) and presence (red open squares) of 10 μM SAF (mean ± standard error of the mean; n = 7 for each point). The INa(T) amplitudes were normalized by dividing the current amplitudes at the end of each pulse-train stimulation by those obtained at the beginning of the pulse train stimulation. The gray continuous lines on which the data points are overlaid are reliably fitted with a single exponential."}, "[4]": {"test_system": "voltage-gated sodium ion (NaV) channels in pituitary GH3 cells", "assay": "Window INa [INa(W)] induced by ascending ramp voltage (−100 to +40 mV over 200 ms) in GH3 cells", "details": "Ran 10 μM added in the presence of SAF 10 μM", "text": "The sigmoidal relationship between Vramp-induced INa(W) and the upsloping Vramp (nonlinear current–voltage relationship) was investigated and fitted with the Boltzmann function as follows: [drawing 2]\nwhere V is the membrane potential in millivolts, Erev is the reversal potential of INa, G is the INa conductance in nanosiemens, I is the current, Vh is the voltage at which half-maximal activation or inactivation of the current occurs, q is the apparent gating charge, F is Faraday’s constant, R is the universal gas constant, and T is the absolute temperature.\nThe free energy ∆G0 for the gating of INa(W) was determined by assuming a two-state gating model [equilibrium between closed (resting) and open states] of the NaV channel. The ∆G0 for the activation of INa(W) at 0 mV could be calculated as follows: q × F × V1/2 [45, 46]. The standard errors in ∆G0 ( [drawing 3] ) could be calculated as follows: […]\nIn the present study, we investigated whether the addition of SAF to GH3 cells modulates the magnitude of INa(W) induced by ascending Vramp. Test cells were maintained at −80 mV and subjected to Vramp ascending from −100 to +40 mV over 200 ms (i.e., ramp speed of 0.7 mV/ms) to induce INa(W). […] The ∆area values of INa(W) in the absence and presence of SAF and SAF plus Ran were calculated (Fig. 7B).\nFig. 7 Stimulatory effects of SAF on window INa [INa(W)] induced by an ascending ramp voltage Vramp in GH3 cells. For the experiments, the test cells were maintained at −80 mV and subjected to Vramp ranging from −100 to +40 mV over 200 ms (ramp speed of 0.7 mV/ms). (A) INa(W) trace in the absence (a, blue) and presence (b, red) of 10 μM SAF. The inset indicates the Vramp protocol, and the downward deflection indicates inward-directed current. The continuous gray lines corresponding to the untreated or SAF-treated (10 μM) cells were fitted (least-squares minimization) with the Boltzmann equation. The values of […] and q (apparent gating charge) induced by ascending Vramp over 200 ms in the absence (blue) of SAF were, respectively, −34 mV and 2.1 e; the corresponding values in the presence (red) of 10 μM SAF were −38 mV and 2.8 e, respectively. (B) Summary graph illustrating the effects of SAF (3 and 10 μM) and SAF (10 μM) plus Ran (10 μM) on the Δarea of INa(W) in GH3 cells (mean ± standard error of the mean; n = 7 for each point). The value of Δarea was measured at a voltage ranging from −80 and +40 mV, which corresponded to INa(W) induced by the ascending Vramp. […] (C) Summary graph illustrating the effects of SAF (3 and 10 μM) and SAF plus Ran (10 μM) on ΔG0 (mean ± standard error of the mean; n = 7 for each point). The estimation of ΔG0 for the induction of instantaneous INa(W) is described in the Materials and Methods section."}, "[5]": {"details": "10 μM MGB added in the presence of 10 μM SAF"}}, "note": "Like-named read-outs stand apart in the source and are kept apart here.", "data": [{"smiles": "NCCc1ccc(O)c(O)c1", "note": "[dopamine]", "values": [{"measurement": "reversal of SAF-mediated increase in INa(T)", "setting": "[1]", "value": "neither dopamine nor serotonin reversed the SAF-mediated increase in INa(T)"}, {"measurement": "effect on magnitude of INa(T)", "setting": "[1]", "value": "neither dopamine nor serotonin altered the magnitude of INa(T)"}]}, {"smiles": "NC1=N[C@H](O)[C@H]2[C@H]3O[C@]4(O)O[C@@H]([C@@H](O)[C@@]2(N1)[C@@H]4O)[C@]3(O)CO", "note": "[TTX, tetrodotoxin]", "values": [{"measurement": "amplitude of INa(L)", "setting": "[1]", "value": "2 ± 1", "unit": "pA"}, {"measurement": "amplitude of INa(T)", "setting": "[1]", "value": "18 ± 2", "unit": "pA"}, {"measurement": "effect on rapid inward current (INa) induced by short depolarizing pulse", "setting": "[1]", "value": "blocked"}]}, {"smiles": "Cc1c(F)c(F)c(COC(=O)[C@@H]2[C@H](/C=C(\\Cl)C(F)(F)F)C2(C)C)c(F)c1F", "note": "(racemic) [Tef, tefluthrin]", "values": [{"measurement": "effect on rapid inward current (INa) induced by short depolarizing pulse", "setting": "[1]; 10 μM", "value": "stimulated"}]}, {"smiles": "C/C=C/C1C(C(=O)OCc2c(F)c(F)c(COC)c(F)c2F)C1(C)C", "note": "(stereo not drawn) [metofluthrin]", "values": [{"measurement": "effect on rapid inward current (INa) induced by short depolarizing pulse", "setting": "[1]; 10 μM", "value": "stimulated"}]}, {"smiles": "CCC1=C[C@@H]2[C@H](C1)C[C@]2(CN)CC(=O)O", "note": "[MGB, mirogabalin]", "values": [{"measurement": "mean open time of the NaV channel", "setting": "[2]; [5]", "value": "3.7 ± 0.7", "unit": "ms"}, {"measurement": "open-state probability of the NaV channel", "setting": "[2]; [5]", "value": "0.041 ± 0.007"}, {"measurement": "amplitude of the single-channel current", "setting": "[2]; SAF plus MGB, control 2.01 ± 0.35 pA", "value": "2.00 ± 0.44", "unit": "pA"}, {"measurement": "effect on SAF-induced increase in decaying time constant of INa(T)", "setting": "[3]", "value": "effectively attenuated the SAF-induced increase in the decaying time constant"}, {"measurement": "decaying time constant of INa(T) during train of depolarizing pulses", "setting": "[3]", "value": "42 ± 4", "unit": "ms"}]}, {"smiles": "NCCc1c[nH]c2ccc(O)cc12", "note": "[serotonin]", "values": [{"measurement": "reversal of SAF-mediated increase in INa(T)", "setting": "[1]", "value": "neither dopamine nor serotonin reversed the SAF-mediated increase in INa(T)"}, {"measurement": "effect on magnitude of INa(T)", "setting": "[1]", "value": "neither dopamine nor serotonin altered the magnitude of INa(T)"}]}, {"smiles": "COc1ccccc1OCC(O)CN1CCN(CC(=O)Nc2c(C)cccc2C)CC1", "note": "(stereo not drawn) [Ran, ranolazine]", "values": [{"measurement": "effect on SAF-mediated increase in ∆G0 of INa(W)", "setting": "[4]", "value": "effectively attenuated the SAF-mediated increase in ∆G0"}, {"measurement": "effect on SAF-mediated increase in ∆area of INa(W)", "setting": "[4]", "value": "reversed the SAF-mediated increase"}, {"measurement": "effect on SAF-induced increase in decaying time constant of INa(T)", "setting": "[3]", "value": "effectively attenuated the SAF-induced increase in the decaying time constant"}, {"measurement": "decaying time constant of INa(T) during train of depolarizing pulses", "setting": "[3]", "value": "39 ± 4", "unit": "ms"}]}]}
